# Columns and labels:
# Panc10.05 cells = experiment: Micropipette aspiration effective cortical tension (Teff), knockdown lines; assay type: cell-based, human
# Experimental: The instrumental and experimental setups have been described previously. MPA assays and RT-DC measurements were all carried out in growth media for cortical tension measurements or Leibovitz L-15 media (Gibco) when fluorescence was quantified.
# Pressure was applied to the cell cortex with a micropipette (6- to 8-μm radius; Rp) to the equilibrium pressure (ΔP), where the length of the cell inside the pipette (Lp) was equal to Rp. The effective cortical tension (Teff) was calculated by applying the Young-Laplace equation: ΔP=2Teff (1/Rp−1/Rc), where Rc is the radius of the cell and ΔP is the equilibrium pressure when Lp=Rp. Images were collected with an Olympus IX81 microscope equipped with MetaMorph software and analyzed using ImageJ (rsb.info.nih.gov/ij).
# myosin IIA = target: T1, myosin IIA (Homo sapiens, UniProt P35579); experiment: Mammalian cell sedimentation assay; assay type: cell-based; details: human-derived cell lines
# T1 construct: endogenous in cells; host or cells: HEK293, HPDE, ASPC-1
# Experimental: (§1) Sedimentation protocol was adapted from the protocol above. 3×10^6 cells were pelleted for 5 min at 2000 rpm and washed in 1 ml PBS. The pellet was resuspended in 100 μl lysis buffer (50 mM PIPES, pH 6.8, 46 mM NaCl, 2.5 mM EGTA, 1 mM MgCl2, 1 mM ATP, 0.5% Triton X-100, and protease inhibitors—PI cocktail, PMSF, TLCK, Aprotinin). Samples were vortexed briefly and incubated on ice for 20 min, followed by centrifugation at 15,000 g for 5 min at 4° C.
# (§2) Pellet was resuspended in 100 μl lysis buffer minus Triton X-100, and both pellet and supernatant fractions were heated to 100° C. for 3 min with RNaseA. Samples were incubated at 37° C. for 30 min and then heated to 100° C. in sample buffer for 5 min. Samples were loaded on a 15% SDS-polyacrylamide gel. Western blot analyses of phospho-myosin IIA was performed on whole cell lysates of cells treated as above in lysate buffer with 10 mM NaF.
# myosin IIB = target: T2, myosin IIB (Homo sapiens, UniProt P35580); experiment: Mammalian cell sedimentation assay; assay type: cell-based
# T2 construct: endogenous in cells; host or cells: HEK293, HPDE
# Experimental: as §1, §2
# myosin IIC = target: T3, myosin IIC (Homo sapiens, UniProt Q7Z406); experiment: Mammalian cell sedimentation assay; assay type: cell-based
# T3 construct: endogenous in cells; host or cells: HEK293, ASPC-1, HPDE
# Experimental: as §1, §2
# [1] = test system: myosin IIA (phosphor-Ser1943); experiment: Western blot of phospho-myosin IIA; assay type: cell-based, human; details: HPDE or ASPC-1 cells
# Experimental: as §2
# ASPC-1 cells [2] = experiment: Viability assay; assay type: cell-based, human; details: 50 nM, 500 nM
# ASPC-1 cells [3] = experiment: Transwell migration assay; assay type: cell-based, human; details: 24 hr transwell
# Experimental: Cells were starved with serum-reduced media for 24 hr, harvested from flasks with trypsin/EDTA, washed with media containing 1% FBS, and resuspended at cell density of 2-5×10^5 cells/ml. 0.2 ml of cells were placed in the upper chamber of transwell (BD Biosciences), with 20% FBS-containing media in the lower well and incubated at 37° C. for 24 hr. Both sides of the transwell contained 4-HAP at the appropriate concentration, with final DMSO concentration at 0.0025%. The transwells were MeOH-fixed and stained with 0.5% crystal violet for 20 min, followed by counting from six random microscopic fields.
# [4] = test system: AsPC-1 shCTRL and shIIA cells; experiment: Transwell migration of knockdown lines; assay type: cell-based, human
# Experimental: AsPC-1 cells were plated in 6.5-mm PET membrane transwell inserts with 8-μm pores (Costar #3464) in a 24-well plate at a concentration of 5,000 cells per well. Cells were allowed to adhere overnight in AsPC-1 media. Cell media was then changed to serum-free RPMI 1640 to starve cells for 18 hrs. Following starvation, cells were stimulated by changing media in the top chamber to fresh serum-free RPMI 1640±500 nM 4-HAP and complete AsPC-1 media ±500 nM 4HAP. Cells were then incubated for 24 hrs at 37 degrees C./5% CO2 and then fixed in 4% paraformaldehyde, permeabilized in 0.1% Triton X-100 and stained with 1 μg/ml DAPI. […] A total of five random fields per transwell insert were imaged using a 10× objective (NA) and nuclei were averaged.
# ASPC-1 cells [5] = experiment: Retrograde actin flow (SiR-actin, lattice light-sheet); assay type: cell-based, human; details: 500 nM
# Experimental: AsPC-1 cells were grown on collagen I-coated (50 μg/ml) 5-mm coverslips for 16 hrs and then treated with 100-nM SiR-Actin (Cytoskeleton, Inc) and […] Verapamil for 4 hrs in Leibovitz L-15 without phenol red media, with or without 4-HAP (500 nM). Coverslips were transferred to the imaging chamber of the Lattice Light-Sheet Microscope (LLSM) (Intelligent Imaging Innovations) containing fresh Leibovitz L-15 media without SiR-Actin and verapamil plus the corresponding 4-HAP concentration. Cells were imaged for 3-5 min at 2-3-sec intervals, 50-150 planes per 3D stack, with a Nikon CFI75 Apochromat 25×/1.1 water-dipping objective. Retrograde actin flow was measured using ImageJ (rsb.info.nih.gov/ij). Datasets were independently analyzed by multiple investigators.
# NMIIA, NMIIC, ACTN4 = experiment: Western analysis of mechanobiome protein expression; assay type: cell-based, human; details: Panc10.05 cells, overnight treatment
# T3 sequence (Q7Z406 whole entry): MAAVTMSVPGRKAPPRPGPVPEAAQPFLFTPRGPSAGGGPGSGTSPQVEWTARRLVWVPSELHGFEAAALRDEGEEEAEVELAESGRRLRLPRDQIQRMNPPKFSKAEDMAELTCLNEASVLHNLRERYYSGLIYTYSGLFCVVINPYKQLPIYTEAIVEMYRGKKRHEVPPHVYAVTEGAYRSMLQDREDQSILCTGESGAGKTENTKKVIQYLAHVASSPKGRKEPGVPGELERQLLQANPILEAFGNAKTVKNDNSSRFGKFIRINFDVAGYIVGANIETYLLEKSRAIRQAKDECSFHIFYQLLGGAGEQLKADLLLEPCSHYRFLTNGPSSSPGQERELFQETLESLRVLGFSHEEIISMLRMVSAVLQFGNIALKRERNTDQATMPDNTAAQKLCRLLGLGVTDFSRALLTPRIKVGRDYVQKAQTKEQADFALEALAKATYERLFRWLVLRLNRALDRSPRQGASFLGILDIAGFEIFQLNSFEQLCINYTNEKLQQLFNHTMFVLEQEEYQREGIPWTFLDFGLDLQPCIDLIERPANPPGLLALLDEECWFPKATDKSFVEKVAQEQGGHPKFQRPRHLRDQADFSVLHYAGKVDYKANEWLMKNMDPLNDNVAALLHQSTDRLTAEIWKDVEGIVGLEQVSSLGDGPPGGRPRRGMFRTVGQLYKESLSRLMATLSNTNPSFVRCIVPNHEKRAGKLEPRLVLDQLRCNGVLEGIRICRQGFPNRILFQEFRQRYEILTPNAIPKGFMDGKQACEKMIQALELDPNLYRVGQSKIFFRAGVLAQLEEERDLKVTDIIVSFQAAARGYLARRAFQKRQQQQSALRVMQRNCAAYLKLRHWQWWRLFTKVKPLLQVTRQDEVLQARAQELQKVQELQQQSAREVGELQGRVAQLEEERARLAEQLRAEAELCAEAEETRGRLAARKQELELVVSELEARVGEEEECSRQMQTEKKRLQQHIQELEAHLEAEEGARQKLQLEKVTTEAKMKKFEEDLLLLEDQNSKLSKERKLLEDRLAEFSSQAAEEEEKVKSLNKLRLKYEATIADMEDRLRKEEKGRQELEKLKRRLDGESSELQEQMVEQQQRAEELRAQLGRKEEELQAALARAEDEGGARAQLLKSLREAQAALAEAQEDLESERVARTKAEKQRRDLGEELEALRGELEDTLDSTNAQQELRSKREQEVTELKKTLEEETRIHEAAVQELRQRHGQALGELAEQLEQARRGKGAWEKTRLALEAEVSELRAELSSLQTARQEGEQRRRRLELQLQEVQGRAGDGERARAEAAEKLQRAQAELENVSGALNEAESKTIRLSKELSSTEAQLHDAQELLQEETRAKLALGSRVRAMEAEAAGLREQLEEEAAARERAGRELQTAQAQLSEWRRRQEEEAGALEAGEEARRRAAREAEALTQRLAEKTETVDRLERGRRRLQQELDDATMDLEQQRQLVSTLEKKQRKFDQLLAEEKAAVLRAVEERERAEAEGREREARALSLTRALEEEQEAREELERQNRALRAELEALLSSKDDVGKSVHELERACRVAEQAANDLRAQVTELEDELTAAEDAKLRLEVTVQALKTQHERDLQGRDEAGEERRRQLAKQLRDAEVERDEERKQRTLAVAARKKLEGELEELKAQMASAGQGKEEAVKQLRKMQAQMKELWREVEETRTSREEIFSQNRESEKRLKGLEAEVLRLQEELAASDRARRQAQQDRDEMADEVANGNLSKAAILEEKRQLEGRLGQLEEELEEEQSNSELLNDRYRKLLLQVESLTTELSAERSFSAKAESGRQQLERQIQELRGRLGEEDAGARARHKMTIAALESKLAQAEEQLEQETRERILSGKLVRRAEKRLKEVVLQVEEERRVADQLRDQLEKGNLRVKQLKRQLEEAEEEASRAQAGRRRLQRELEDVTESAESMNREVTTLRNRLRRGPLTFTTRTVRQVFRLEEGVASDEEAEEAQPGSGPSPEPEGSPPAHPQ
# T2 sequence (P35580 whole entry): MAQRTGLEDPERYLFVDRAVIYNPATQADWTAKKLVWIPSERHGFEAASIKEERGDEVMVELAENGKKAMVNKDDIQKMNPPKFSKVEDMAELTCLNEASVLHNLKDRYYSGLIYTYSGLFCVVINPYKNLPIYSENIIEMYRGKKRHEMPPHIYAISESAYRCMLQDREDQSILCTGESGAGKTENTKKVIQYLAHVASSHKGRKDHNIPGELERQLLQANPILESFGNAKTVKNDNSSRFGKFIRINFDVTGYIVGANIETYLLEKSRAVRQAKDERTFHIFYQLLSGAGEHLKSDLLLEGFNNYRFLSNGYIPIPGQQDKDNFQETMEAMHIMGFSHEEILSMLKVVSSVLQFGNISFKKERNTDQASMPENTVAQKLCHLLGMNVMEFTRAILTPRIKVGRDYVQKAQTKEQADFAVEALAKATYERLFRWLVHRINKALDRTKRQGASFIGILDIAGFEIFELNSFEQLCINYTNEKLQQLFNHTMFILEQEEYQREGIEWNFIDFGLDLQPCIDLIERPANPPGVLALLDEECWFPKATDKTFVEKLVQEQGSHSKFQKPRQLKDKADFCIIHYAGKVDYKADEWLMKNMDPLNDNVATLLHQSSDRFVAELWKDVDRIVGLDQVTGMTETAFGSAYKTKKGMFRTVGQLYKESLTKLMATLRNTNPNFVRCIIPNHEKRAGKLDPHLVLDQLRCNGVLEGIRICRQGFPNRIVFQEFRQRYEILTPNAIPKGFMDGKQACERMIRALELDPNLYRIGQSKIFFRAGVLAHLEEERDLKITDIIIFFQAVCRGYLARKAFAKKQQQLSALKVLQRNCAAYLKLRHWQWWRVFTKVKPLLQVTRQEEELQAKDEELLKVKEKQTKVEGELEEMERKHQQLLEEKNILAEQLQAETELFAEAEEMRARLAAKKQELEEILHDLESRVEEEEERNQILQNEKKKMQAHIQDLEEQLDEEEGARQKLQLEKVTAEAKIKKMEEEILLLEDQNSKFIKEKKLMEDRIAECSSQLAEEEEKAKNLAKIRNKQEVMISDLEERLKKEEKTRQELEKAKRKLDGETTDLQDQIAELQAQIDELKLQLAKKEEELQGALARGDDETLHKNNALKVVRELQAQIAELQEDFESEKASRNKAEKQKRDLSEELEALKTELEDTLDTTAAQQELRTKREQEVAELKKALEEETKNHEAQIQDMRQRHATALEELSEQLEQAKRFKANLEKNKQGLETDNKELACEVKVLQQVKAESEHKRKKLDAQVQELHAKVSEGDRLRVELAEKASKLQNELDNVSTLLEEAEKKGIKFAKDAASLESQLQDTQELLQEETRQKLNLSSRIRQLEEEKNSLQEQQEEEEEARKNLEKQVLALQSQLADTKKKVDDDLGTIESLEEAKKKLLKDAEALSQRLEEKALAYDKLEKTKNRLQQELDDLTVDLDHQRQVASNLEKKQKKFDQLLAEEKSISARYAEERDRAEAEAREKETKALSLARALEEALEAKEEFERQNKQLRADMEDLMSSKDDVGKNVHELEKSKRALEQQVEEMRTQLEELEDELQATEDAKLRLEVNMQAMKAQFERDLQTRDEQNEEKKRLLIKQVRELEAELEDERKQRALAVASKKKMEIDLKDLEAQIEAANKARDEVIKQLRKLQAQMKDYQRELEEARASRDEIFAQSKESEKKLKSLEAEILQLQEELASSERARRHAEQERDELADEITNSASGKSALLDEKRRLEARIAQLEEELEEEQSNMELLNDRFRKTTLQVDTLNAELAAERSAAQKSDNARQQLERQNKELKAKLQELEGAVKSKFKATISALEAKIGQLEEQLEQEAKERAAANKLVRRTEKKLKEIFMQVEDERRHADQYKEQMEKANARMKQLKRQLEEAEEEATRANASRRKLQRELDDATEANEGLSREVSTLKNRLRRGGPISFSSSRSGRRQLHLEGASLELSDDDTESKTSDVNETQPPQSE
smiles,measurement,setting,value
"CC(=O)c1ccc(O)cc1 [4-HAP, 4-hydroxyacetophenone]",effective cortical tension,Panc10.05 cells; myosin IIA knockdown cells,increases the cortical tension in myosin IIA knockdown cells
same,effective cortical tension,Panc10.05 cells; myosin IIC knockdown cells,unchanged by 4-HAP challenge
same,effective cortical tension,"Panc10.05 cells; sh-control cells, 500-nM",increases the cortical tension of sh-control cells
same,assembled myosin IIA,myosin IIA,showed little change
same,assembled myosin IIB,"myosin IIB; HEK293 cells, 500 nM, 1 hr",increases in assembled myosin IIB and IIC
same,assembled myosin IIB,myosin IIB; HPDE cells,showed a shift in assembly
same,assembled myosin IIC,"myosin IIC; ASPC-1 cells, 500 nM, 1 hr",increases assembled myosin IIC
same,assembled myosin IIC,"myosin IIC; HEK293 cells, 500 nM, 1 hr",increases in assembled myosin IIB and IIC
same,assembled myosin IIC,myosin IIC; wild type HPDE cells,increases assembled myosin IIC
same,myosin IIA phosphorylation (phosphor-Ser1943),[1],little effect on myosin IIA phosphorylation
same,viability vs DMSO control,ASPC-1 cells [2],no difference over DMSO control
same,in vitro migration,ASPC-1 cells [3],dose-dependent decrease
same,transwell migration,[4],moderate dose-dependence reduction of transwell migration
same,detectability of actin flow,ASPC-1 cells [5],undetectable levels of actin flow
same,reduction in retrograde actin flow velocity over untreated controls,ASPC-1 cells [5]; cells in which flow could be measured,50%
same,"expression of NMIIA, NMIIC, or ACTN4","NMIIA, NMIIC, ACTN4",does not affect the expression

# Reference: patent publication US11834401B2, “Treating and preventing diseases by modulating cell mechanics” (THE JOHNS HOPKINS UNIVERSITY, priority 2013, dated 2023)
